Values joined by “and” are separate entries in the source; they are usually repeats but may differ in a detail not shown here. Identical values can stand only once. Counter-ions that a name gives are not always drawn. Like-named read-outs stand apart in the source and are kept apart here.
Tests used:
[1] = test system: SCG neurons; assay: Protection of SCG neurons from anti-NGF killing; type: cell-based, Sprague Dawley rats; conditions: anti-NGF antibody, serum and NGF free 48 hours, Alamar Blue, +/−1 uM, read-out: IC(50), rescue from anti-NGF killing of SCG neurons
Method: Neurotrophins are critical to the growth, development, and survival of small fiber neurons of the PNS. SCG neurons are neurons of the PNS that undergo apoptosis upon NGF withdrawal. In a typical experiment SCG neurons are cultured in the presence of NGF, which induces survival and neurite out-growth. After 5 days the NGF is removed by either the addition of anti-NGF polyclonal antibody (Sigma) or by repeated washings (4 times) with NGF free media, resulting in the apoptosis of up to 90% of the neurons after 48 hours, as measured by MTS staining.
After 4 days the cells were treated with anti-NGF antibody (Sigma). At this time compound was added and the cells were maintained serum and NGF free for 48 hours, at which time viability was assessed using Alamar Blue (Medicorp) staining.

[2] = test system: SCG neurons; assay: cells; type: cell-based, Sprague Dawley rats
Method: Taxol™ is regularly used in breast cancer chemotherapy. In cancer cells Taxol™ binds to the cyto-skeletal protein tubulin, thereby inhibiting normal microtubular assembly and inducing cellular apoptosis. Despite its potency as an anti-tumour agent, Taxol™ is also toxic to neurons, inducing dose limiting peripheral neuropathies. The addition of Taxol™ (100 ng/mL) to cultured SCG neurons induces the degradation or loss of upwards of 80% of the neurons.
FIG. 1 illustrates the protection provided by compound 1 (referred to here as AEG3482) against Taxol™ induced killing. PI Sprague Dawley rat SCG neurons were cultured and incubated with NGF (50 ng/mL) for 5 days.

[3] = biological target: CA II (Homo sapiens, UniProt P00918); assay: CA II inhibition; type: biochemical
Method: CA II inhabition was measured using the protocol described by Pocker, Y.'Stone, J. Biochemistry 1967, 6, 668.

[4] = read-out: IC(50), CA II inhibition
[5] = Rattus norvegicus, Neuron, Taxol™ (50 ng/mL), viability 48 hours later, MTS, read-out: IC(50), protection of SCG neurons from Taxol killing
[6] = Rattus norvegicus, Neuron, 48 h

“6-(4-bromophenoxyphenyl)imidazo[2,1-b]-1,3,4-thiadiazole-2-sulfonamide [Compound 95]” showed an IC50 [1] of 7 µM and an IC50 ([2]; Taxol™ (50 ng/mL), viability 48 hours later, MTS, read-out: IC(50), protection of SCG neurons from Taxol killing) of 3 µM.

NS(=O)(=O)c1nn2cc(-c3ccccc3F)nc2s1 [Compound 2, 6-(2-Fluorophenyl)imidazo[2,1-b]-1,3,4-thiadiazole-2-sulfonamide] gave an IC50 ([1]; Rattus norvegicus, Neuron) of 20 µM.

NS(=O)(=O)c1nn2cc(-c3cccc(F)c3)nc2s1 [Compound 3, 6-(3-Fluorophenyl)imidazo[2,1-b]-1,3,4-thiadiazole-2-sulfonamide] gave an IC50 ([1]; Rattus norvegicus, Neuron) of 10 µM.

Compound NS(=O)(=O)c1nn2cc(-c3c(F)c(F)c(N4CCOCC4)c(F)c3F)nc2s1 [Compound 9, 6-(4-Morpholino-2,3,5,6-tetrafluorophenyl)imidazo[2,1-b]-1,3,4-thiadiazole-2-sulfonamide] has an IC50 ([1]; Rattus norvegicus, Neuron) of 8 µM.

NS(=O)(=O)c1nn2cc(-c3ccc4c(c3)OCCCO4)nc2s1 [Compound 21, 6-(3,4-dihydro-2H-1,5-benzodioxepin-7-yl)imidazo[2,1-b]-1,3,4-thiadiazole-2-sulfonamide] was tested, and the IC50 ([1]; Rattus norvegicus, Neuron) was 22 µM, the IC50 [3, 4] was 5.32 µM and the IC50 [2, 5] was 7 µM.

NS(=O)(=O)c1nn2cc(-c3ccc4c(c3)OC3(CCCCC3)O4)nc2s1 [Compound 23, 6-(2-spiro(cyclohexyl)benzo-1,3-dioxol-5-yl)imidazo[2,1,-b]-1,3,4-thiadiazole-2-sulfonamide] gave an IC50 ([1]; Rattus norvegicus, Neuron) of 25 µM.

In the case of NS(=O)(=O)c1nn2cc(-c3ccc(OCCO)cc3)nc2s1 [Compound 26], the IC50 ([1]; Rattus norvegicus, Neuron) is reported as 23 µM and the IC50 [2, 5] is reported as 7 µM.

With COc1cc(-c2cn3nc(S(N)(=O)=O)sc3n2)ccc1OCCO [Compound 34] the IC50 ([1]; Rattus norvegicus, Neuron) was greater than 30 µM.

Work on COc1cc(-c2cn3nc(S(N)(=O)=O)sc3n2)ccc1OCCOCc1ccccc1 [Compound 35] yielded an IC50 ([1]; Rattus norvegicus, Neuron) greater than 30 µM.

COc1cc(-c2cn3nc(S(N)(=O)=O)sc3n2)ccc1OCCCOCc1ccccc1 [Compound 36] showed an IC50 ([1]; Rattus norvegicus, Neuron) of 17 µM.

CCCCCc1ccc(-c2cn3nc(S(N)(=O)=O)sc3n2)cc1 [Compound 46, 6-(4-Pentylphenyl)imidazo[2,1-b]-1,3,4-thiadiazole-2-sulfonamide] was tested, and the IC50 [3, 4] was 0.601 µM and the IC50 [2, 5] was 7 µM.

With Cc1ccc(-c2cn3nc(S(N)(=O)=O)sc3n2)cc1 [Compound 47, 6-(4-Methylphenyl)imidazo[2,1-b]-1,3,4-thiadiazole-2-sulfonamide] the IC50 [3, 4] was 0.361 µM and the IC50 [2, 5] was 6 µM.

In the case of Cc1ccc(-c2cn3nc(S(N)(=O)=O)sc3n2)c(C)c1 [Compound 48, 6-(2,4-dimethylphenyl)imidazo[2,1-b]-1,3,4-thiadiazole-2-sulfonamide], the IC50 [3, 4] is reported as 0.288 µM and the IC50 [2, 5] is reported as 5 µM.

Work on CC(C)(C)c1ccc(-c2cn3nc(S(N)(=O)=O)sc3n2)cc1 [Compound 49, 6-(4-tert-butylphenyl)imidazo[2,1-b]-1,3,4-thiadiazole-2-sulfonamide] yielded an IC50 [3, 4] of 0.466 µM and an IC50 [2, 5] of 5 µM.

Compound CC(C)(C)c1cc(-c2cn3nc(S(N)(=O)=O)sc3n2)c2c(c1)C(C)(C)CC2 [Compound 50] has an IC50 [3, 4] of 0.938 µM and an IC50 [2, 5] of 7 µM.

NS(=O)(=O)c1nn2cc(-c3ccc(-c4ccccc4)cc3)nc2s1 [Compound 72, 6-(Biphenyl)imidazo[2,1-b]-1,3,4-thiadiazole-2-sulfonamide] was tested, and the IC50 ([1]; Rattus norvegicus, Neuron) was 17 µM, the IC50 [3, 4] was 1.61 µM and 2.19 µM and the IC50 [2, 5] was 10 µM.

Compound NS(=O)(=O)c1nn2cc(-c3ccc(-c4ccc(CO)cc4)cc3)nc2s1 [Compound 74, 6-(4-(hydroxymethylphenyl)phenyl)imidazo[2,1-b]-1,3,4-thiadiazole-2-sulfonamide] has an IC50 ([1]; Rattus norvegicus, Neuron) of 20 µM, an IC50 [3, 4] of 1.68 µM and an IC50 [2, 5] of 7 µM.

With COc1ccccc1-c1ccc(-c2cn3nc(S(N)(=O)=O)sc3n2)cc1 [Compound 75, 6-(4-(2-methoxyphenyl)phenyl)imidazo[2,1-b]-1,3,4-thiadiazole-2-sulfonamide] the IC50 ([1]; Rattus norvegicus, Neuron) was 10 µM, the IC50 [3, 4] was 0.441 µM and the IC50 [2, 5] was 5 µM.

NS(=O)(=O)c1nn2cc(-c3ccc(-c4ccc5c(c4)OCO5)cc3)nc2s1 [Compound 79] was tested, and the IC50 ([1]; Rattus norvegicus, Neuron) was 7 µM.

Work on NS(=O)(=O)c1nn2cc(-c3ccc(-c4cccs4)cc3)nc2s1 [Compound 84, 6-(thiophen-2-yl-phenyl)imidazo[2,1-b]-1,3,4-thiadiazole-2-sulfonamide] yielded an IC50 ([1]; Rattus norvegicus, Neuron) greater than 30 µM.

With NS(=O)(=O)c1nn2cc(-c3ccc(-c4ccsc4)cc3)nc2s1 [Compound 85, 6-(thiophen-3-yl-phenyl)imidazo[2,1-b]-1,3,4-thiadiazole-2-sulfonamide] the IC50 ([1]; Rattus norvegicus, Neuron) was greater than 30 µM.

With COc1ccc(-c2cccc(-c3cn4nc(S(N)(=O)=O)sc4n3)c2)cc1 [Compound 86, 6-(4′methoxybiphen-3-yl)imidazo[2,1-b]-1,3,4-thiadiazole-2-sulfonamide] the IC50 ([1]; Rattus norvegicus, Neuron) was 17 µM.

NS(=O)(=O)c1nn2cc(-c3ccc(Oc4ccc(F)cc4)cc3)nc2s1 [Compound 88] showed an IC50 ([1]; Rattus norvegicus, Neuron) of 10 µM.

For NS(=O)(=O)c1nn2cc(-c3ccc(Oc4ccc(F)c(F)c4)cc3)nc2s1 [Compound 89, 6-(4-(3,4-difluorophenoxy)phenyl)imidazo[2,1-b]-1,3,4-thiadiazole-2-sulfonamide], the IC50 ([1]; Rattus norvegicus, Neuron) was 10 µM.

NS(=O)(=O)c1nn2cc(-c3ccc(Oc4ccc(Cl)cc4)cc3)nc2s1 [Compound 91, 6-(4-chlorophenoxyphenyl)imidazo[2,1-b]-1,3,4-thiadiazole-2-sulfonamide] showed an IC50 ([1]; Rattus norvegicus, Neuron) of 7 µM.

In the case of NS(=O)(=O)c1nn2cc(-c3ccc(Oc4ccc(Cl)c(Cl)c4)cc3)nc2s1 [Compound 92, 6-(3,4-dichlorophenoxyphenyl)imidazo[2,1-b]-1,3,4-thiadiazole-2-sulfonamide], the IC50 ([1]; Rattus norvegicus, Neuron) is reported as 7 µM.

NS(=O)(=O)c1nn2cc(-c3ccc(Oc4ccccc4Br)cc3)nc2s1 [Compound 93, 6-(2-bromophenoxyphenyl)imidazo[2,1-b]-1,3,4-thiadiazole-2-sulfonamide] gave an IC50 ([1]; Rattus norvegicus, Neuron) of 7 µM.

Compound NS(=O)(=O)c1nn2cc(-c3ccc(Oc4cccc(Br)c4)cc3)nc2s1 [Compound 94, 6-(3-bromophenoxyphenyl)imidazo[2,1-b]-1,3,4-thiadiazole-2-sulfonamide] has an IC50 ([1]; Rattus norvegicus, Neuron) of 10 µM.

CN(C)c1cccc(Oc2ccc(-c3cn4nc(S(N)(=O)=O)sc4n3)cc2)c1 [Compound 96, 6-(3-dimethylaminophenoxyphenyl)imidazo[2,1-b]-1,3,4-thiadiazole-2-sulfonamide] showed an IC50 ([1]; Rattus norvegicus, Neuron) of 20 µM.

Work on CC(C)c1ccc(Oc2ccc(-c3cn4nc(S(N)(=O)=O)sc4n3)cc2)cc1 [Compound 97, 6-(4-(4-iso-propylphenoxy)phenyl)imidazo[2,1-b]-1,3,4-thiadiazole-2-sulfonamide] yielded an IC50 ([1]; Rattus norvegicus, Neuron) of 7 µM.

With COc1ccc(Oc2ccc(-c3cn4nc(S(N)(=O)=O)sc4n3)cc2)cc1 [Compound 98, 6-(4-(4-methoxyphenoxy)phenyl)imidazo[2,1-b]-1,3,4-thiadiazole-2-sulfonamide] the IC50 ([1]; Rattus norvegicus, Neuron) was 17 µM.

In the case of NS(=O)(=O)c1nn2cc(-c3ccccn3)nc2s1 [Compound 105, 6-(2-Pyridyl)imidazo[2,1-b]-1,3,4-thiadiazole-2-sulfonamide], the IC50 [3, 4] is reported as 0.15 µM and the IC50 [2, 5] is reported as 7 µM.

With NS(=O)(=O)c1nn2cc(-c3ccccn3)nc2s1 [Compound 106, 6-(2-Pyridyl)imidazo[2,1-b]-1,3,4-thiadiazole-2-sulfonamide HCl] the IC50 ([1]; Rattus norvegicus, Neuron) was 7 µM.

For CNS(=O)(=O)c1nn2cc(-c3ccccc3)nc2s1 [Compound 137, 6-Phenyl-imidazo[2,1-b]-1,3,4-thiadiazole-2-N-methylsulfonamide], the “decrease in CAII activity relative to compound 1” value ([3]; compound 137 versus compound 1) was 100 fold, the IC50 ([3]; read-out: CAII(50) / CAII IC(50)) was 2.06 µM and the IC50 [2, 5] was 10 µM. For the same compound, the IC50 ([2]; Rattus norvegicus, Neuron, read-out: IC(50) against Taxol killing of SCGs) was 7 µM.

Compound CN(C)S(=O)(=O)c1nn2cc(-c3ccccc3)nc2s1 [Compound 139, 6-Phenyl-imidazo[2,1-b]-1,3,4-thiadiazole-2-N,N-dimethylsulfonamide] has an IC50 [3, 4] of 11.3 µM and an IC50 [2, 5] of 10 µM.

CCCCN(CCCC)S(=O)(=O)c1nn2cc(-c3cccc(OC)c3)nc2s1 [Compound 142, 6-(3-Methoxyphenyl)imidazo[2,1-b]-1,3,4-thiadiazole-2-N,N-dibutylsulfonamide] gave an IC50 [3, 4] of 60.3 µM and an IC50 [2, 5] greater than 30 µM.

COc1cccc(-c2ccc(-c3cn4nc(S(N)(=O)=O)sc4n3)cc2)c1 [Compound 149, 6-(3′-methoxybiphen-4-yl)imidazo[2,1-b]-1,3,4-thiadiazole-2-sulfonamide sodium salt] was tested, and the IC50 [1, 6] was 7 µM.

For NS(=O)(=O)c1nn2cc(-c3ccc(-c4cccc(C(F)(F)F)c4)cc3)nc2s1 [Compound 150, 6-(3′-trifluoromethylbiphen-4-yl)imidazo[2,1-b]-1,3,4-thiadiazole-2-sulfonamide sodium salt], the IC50 [1, 6] was 7 µM.
